From ChEMBL document CHEMBL4402545, “Subtype Selective γ-Aminobutyric Acid Type A Receptor (GABAAR) Modulators Acting at the Benzodiazepine Binding Site: An Update” (J Med Chem, 2020) come the findings set out here.

Assay [1] deals with Homo sapiens. In words: In vivo receptor occupancy at GABAA receptor in human at 5 mg, po relative to control. The class given is functional.
In assay [2] the target is T1, Gamma-aminobutyric acid receptor subunit alpha-2 (Homo sapiens, UniProt P47869).
T1 sequence (P47869 whole entry): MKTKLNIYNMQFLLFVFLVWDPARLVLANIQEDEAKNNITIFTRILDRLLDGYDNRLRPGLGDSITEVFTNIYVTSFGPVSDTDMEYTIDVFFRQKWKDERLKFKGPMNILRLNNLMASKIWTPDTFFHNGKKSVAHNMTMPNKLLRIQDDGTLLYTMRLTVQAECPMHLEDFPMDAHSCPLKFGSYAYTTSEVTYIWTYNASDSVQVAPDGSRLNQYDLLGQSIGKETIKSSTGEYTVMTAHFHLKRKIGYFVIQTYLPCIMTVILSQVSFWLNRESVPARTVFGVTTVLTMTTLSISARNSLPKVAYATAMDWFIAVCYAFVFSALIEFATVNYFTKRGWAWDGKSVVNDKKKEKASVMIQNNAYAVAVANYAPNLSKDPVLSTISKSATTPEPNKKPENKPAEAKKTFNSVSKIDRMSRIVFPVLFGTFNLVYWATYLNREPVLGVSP
As to the kind of experiment: Binding affinity to GABA-A alpha2 (unknown origin).

The target of assay [3] is T2, Gamma-aminobutyric acid receptor subunit alpha-1 (Homo sapiens, UniProt P14867).
T2 sequence (P14867 whole entry): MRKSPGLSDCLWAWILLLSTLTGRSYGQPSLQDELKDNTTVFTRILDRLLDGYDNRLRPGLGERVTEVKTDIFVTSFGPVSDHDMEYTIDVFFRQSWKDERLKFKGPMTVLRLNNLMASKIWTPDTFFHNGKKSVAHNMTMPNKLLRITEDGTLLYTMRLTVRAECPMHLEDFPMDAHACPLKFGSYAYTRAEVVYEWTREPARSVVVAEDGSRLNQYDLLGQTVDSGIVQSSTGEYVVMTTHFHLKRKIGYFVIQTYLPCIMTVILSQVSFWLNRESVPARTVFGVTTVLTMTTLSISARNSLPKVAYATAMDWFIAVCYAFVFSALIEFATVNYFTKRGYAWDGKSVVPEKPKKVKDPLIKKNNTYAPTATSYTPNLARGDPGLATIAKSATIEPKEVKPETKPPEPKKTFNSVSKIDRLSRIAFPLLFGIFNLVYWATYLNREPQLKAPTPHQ
In words: Binding affinity to GABA-A alpha1 (unknown origin).

Assay [4] concerns Rattus norvegicus. As to the kind of experiment: In vivo receptor occupancy at GABAA receptor in po dosed Sprague-Dawley rat assessed as plasma concentration causing 50% reduction in [3H]-flumazenil receptor labeling after 0.5 hrs. In kind it is functional.
Assay [5] relates to Rattus norvegicus. As to the kind of experiment: In vivo receptor occupancy at GABAA receptor in po dosed Sprague-Dawley rat assessed as brain concentration causing 50% reduction in [3H]-flumazenil receptor labeling after 0.5 hrs. The class given is functional.
In assay [6] the test system is Rhesus monkey. In words: In vivo receptor occupancy at GABAA receptor in iv dosed rhesus monkey assessed as plasma concentration causing 50% reduction in [11C]-flumazenil receptor labeling by PET method. The class given is functional, Macaca mulatta.
Assay [7] concerns the target T3, Gamma-aminobutyric acid receptor subunit alpha-3 (Homo sapiens, UniProt P34903).
T3 sequence (P34903 whole entry): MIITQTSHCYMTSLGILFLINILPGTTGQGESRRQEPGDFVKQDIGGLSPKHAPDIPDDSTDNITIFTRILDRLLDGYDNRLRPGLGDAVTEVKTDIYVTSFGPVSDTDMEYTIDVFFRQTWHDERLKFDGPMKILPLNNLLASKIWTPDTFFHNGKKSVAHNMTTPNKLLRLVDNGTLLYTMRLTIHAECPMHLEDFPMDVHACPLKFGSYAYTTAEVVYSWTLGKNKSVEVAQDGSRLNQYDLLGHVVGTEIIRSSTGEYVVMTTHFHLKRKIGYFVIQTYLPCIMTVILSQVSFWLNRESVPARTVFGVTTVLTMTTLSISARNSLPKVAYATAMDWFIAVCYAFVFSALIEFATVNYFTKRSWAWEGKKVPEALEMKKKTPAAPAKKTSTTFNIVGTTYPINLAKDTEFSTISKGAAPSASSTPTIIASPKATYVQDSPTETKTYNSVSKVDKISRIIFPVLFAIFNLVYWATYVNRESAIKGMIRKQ
In words: Binding affinity to GABA-A alpha3 (unknown origin).

For assay [8], the system named is Homo sapiens. In words: In vivo receptor occupancy GABAA receptor in human assessed as cerebellum concentration causing reduction in [11C]flumazenil receptor labeling at 20 mg by PET method relative to control. In kind it is functional.
Assay [9] has as its system Rattus norvegicus. In words: In vivo receptor occupancy at GABAA receptor in sc dosed rat brain. The class given is functional.
Assay [10] deals with Homo sapiens. In words: In vivo receptor occupancy GABAA receptor in human assessed as occipital cortex concentration causing reduction in [11C]flumazenil receptor labeling at 20 mg by PET method relative to control. In kind it is functional.
Assay [11] concerns the target T4, Gamma-aminobutyric acid receptor subunit alpha-1 (Homo sapiens) (UniProt P14867).
T4 sequence (whole entry): T2 sequence (P14867 whole entry)
As to the kind of experiment: Binding affinity to GABA-A alpha1 (unknown origin) assessed as increase in induced current relative to control.

For assay [12], the target named is T5, Gamma-aminobutyric acid receptor subunit alpha-2 (Homo sapiens) (UniProt P47869).
T5 sequence (whole entry): T1 sequence (P47869 whole entry)
In words: Binding affinity to GABA-A alpha2 (unknown origin) assessed as increase in induced current relative to control.

Assay [13] has as its system Homo sapiens. In words: In vivo receptor occupancy GABAA receptor in human assessed as neocortical regions concentration causing reduction in [11C]flumazenil receptor labeling at 1.5 mg after 24 hrs by PET method relative to control. In kind it is functional.
Assay [14] deals with Homo sapiens. In words: In vivo receptor occupancy GABAA receptor in human assessed as neocortical regions concentration causing reduction in [11C]flumazenil receptor labeling at 1.5 mg after 5 hrs by PET method relative to control. The class given is functional.
Assay [15] has as its target T6, Gamma-aminobutyric acid receptor subunit alpha-5 (Homo sapiens, UniProt P31644).
T6 sequence (P31644 whole entry): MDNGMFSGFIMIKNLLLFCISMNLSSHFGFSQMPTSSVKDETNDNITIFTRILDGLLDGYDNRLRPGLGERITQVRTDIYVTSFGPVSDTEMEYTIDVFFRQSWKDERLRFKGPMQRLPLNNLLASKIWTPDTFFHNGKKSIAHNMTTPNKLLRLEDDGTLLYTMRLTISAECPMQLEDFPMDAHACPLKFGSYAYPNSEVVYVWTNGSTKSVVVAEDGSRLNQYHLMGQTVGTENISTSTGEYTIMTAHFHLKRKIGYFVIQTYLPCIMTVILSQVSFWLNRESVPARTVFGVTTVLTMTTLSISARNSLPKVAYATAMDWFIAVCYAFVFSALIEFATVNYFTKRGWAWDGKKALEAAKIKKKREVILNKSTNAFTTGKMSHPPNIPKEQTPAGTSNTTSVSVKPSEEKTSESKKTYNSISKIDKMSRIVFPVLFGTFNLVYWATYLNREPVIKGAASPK
In words: Binding affinity to GABA-A alpha5 (unknown origin).

For assay [16], the system named is Homo sapiens. As to the kind of experiment: In vivo receptor occupancy at GABAA receptor in po dosed human assessed as plasma concentration causing 50% reduction in [11C]-flumazenil receptor labeling. In kind it is functional.
The target in assay [17] is T7, Gamma-aminobutyric acid receptor subunit alpha-3 (Homo sapiens) (UniProt P34903).
T7 sequence (whole entry): T3 sequence (P34903 whole entry)
As to the kind of experiment: Binding affinity to GABA-A alpha3 (unknown origin) assessed as increase in induced current relative to control.

In assay [18] the test system is Rattus norvegicus. As to the kind of experiment: In vivo receptor occupancy at GABAA receptor in po dosed Sprague-Dawley rat assessed as brain concentration causing 50% reduction in [3H]-flumazenil receptor labeling after 0.75 hrs by scintillation counting method. The class given is functional.
Assay [19] concerns the target T8, Gamma-aminobutyric acid receptor subunit alpha-5 (Homo sapiens) (UniProt P31644).
T8 sequence (whole entry): T6 sequence (P31644 whole entry)
As to the kind of experiment: Binding affinity to GABA-A alpha5 (unknown origin) assessed as increase in induced current relative to control.

For assay [20], the system named is Rattus norvegicus. As to the kind of experiment: In vivo receptor occupancy at GABAA receptor in po dosed Sprague-Dawley rat assessed as plasma concentration causing 50% reduction in [3H]-flumazenil receptor labeling by scintillation counting method. The class given is functional.

For `Cc1cc(-c2nncc3c(C(C)(C)C)c(OCc4ncnn4C)nn23)no1`, in [1], the Occ is 75%. For the same molecule, the Ki in assay [2] stood at 0.85 nM; in assay [3] it was 0.83 nM; in [7], 0.77 nM. Also, the Occ50 in [4] stood at 15 ng/mL; in assay [5], 0.39 mg/kg; in assay [6] it was 21 ng/mL.

Regarding `CCCNC(=O)c1nnc2c(-c3c(F)cccc3OC)cccc2c1N` [AZD7325], the Occ in assay [8] and in assay [10] was 83% in each case. The molecule further gave an Occ50 in [9] of 1 to 2 µM/g.

As to `CC(C)(O)c1cnn2c(-c3ccc(F)c(-c4c(F)cccc4C#N)c3)cnc2n1`, the fold change (FC) amounted to 0.03 in assay [11], 0.38 in assay [12], 0.5 in assay [17] and 0.37 in [19]. The values for the Occ in assay [13] and in assay [14] were 46% and 52%, respectively. The inhibition constant Ki in assay [2] is 2 nM; in assay [3], 0.73 nM; in assay [15], 1.1 nM; in assay [7], 1.8 nM. Further, the Occ50 in assay [16] was 5.8 ng/mL; in assay [18], 0.09 mg/kg; in assay [20] it was 19 ng/mL.

As a reminder, the Ki is a measure of affinity in units of concentration, obtained from inhibition or displacement.
